Where “and” joins values, the source holds several entries; their conditions need not be identical. Equal values may be shown once. Entries after “also recorded” stand apart in the source; their conditions may differ.
Assays:
[1] = tested on: primary muscle cells from GSD IIIa patients; assay: rhGAA treatment of cultured primary muscle cells from GSD III patients; type: cell-based, human; settings: normal and GSD III patient primary muscle cells, rhGAA added to culture
Procedure: FIG. 2 illustrates an analysis of the skeletal muscle biopsies from two GSD Ma patients, a person (Pt. 1) and a person (Pt. 2). […] (B) Under EM, occasional lysosomal glycogen (arrow) was also seen in the myocytes (scale bar=1 μm). […] (E) GAA activity in normal and patient cells 48 h after adding recombinant human acid alpha-glucosidase (rhGAA, Myozyme, alglucosidase alfa) treatment. […] Mean±standard deviation is shown in C—F (n=4). The significance of differences between two different groups was assessed using the two-tailed, equal variance student T-test ([…]).

[2] = tested on: primary GSD IV mouse muscle cells; assay: rhGAA treatment of cultured primary myoblasts from GSD IV mice; type: cell-based
Procedure: Primary myoblast cells were isolated from 7-day-old GSD IV mouse skeletal muscle. Early passage cells were seeded in 10-cm culture dishes with EMEM medium containing 10% FBS. When cells reached 90% confluence, rhGAA was added to the culture medium (final activity =1000 nmol/hr/ml). The cells were harvested 24 hours later to analyze glycogen content and GAA activity.
Reduction of glycogen deposition in GSD IV mouse myoblasts by rhGAA treatment was also confirmed by immunofluorescence staining using a mouse anti-glycogen monoclonal antibody ESG1A9mAb.

[3] = tested on: patient with PRKAG2 pathogenic gene mutation; assay: Alglucosidase alfa ERT in a patient with PRKAG2 mutation (case report); type: in vivo, human; settings: for overall clinical response (neurological, occupational and physical therapy reports): after reinitiation of ERT
Description: A patient was born by caesarian section at 38 weeks gestation as a result of the nuchal cord being wrapped around their neck. The patient was noted to have hypotonia and generalized muscle weakness. They were areflexic and had feeding difficulties. The patient began developing severe lower respiratory infections which led to frequent admissions to the hospital. […] Following numerous recurrent pneumonias, and the history of muscle weakness, the patient's physicians raised Pompe disease as a potential diagnosis. […] Given the early findings of hypotonia and the low GAA enzyme activity, a diagnosis of non-classic infantile Pompe disease was made. The patient was initiated on ERT with alglucosdase alfa at a dose of 20 mg/kg every 2 weeks.
Baseline assessments were done which included tests for AST (44 IU/L; normal range: <45 IU/L), ALT (20 IU/L; normal range: 9-80 IU/L), along with PT measures looking at muscle strength and function measures. […] Upon examination, the patient has developed more defined calf muscles, along with an improvement of […] strength and power. […] has grown physically stronger and has not had episodes in which […] lacks energy for consecutive days, becomes completely floppy, and is unable to hold their head up properly following a seizure.
At baseline, according to the MABC assessment, the patient achieved a Total Test Score of 68 ranking them in the 25th percentile. Five months after reinitiation of ERT, the patient achieved a Total Test Score of 73 on […] MABC assessment, ranking them in the 37th percentile. A minimal detectable change (MDC) for the MABC has been reported as 1.21 points, representing a true change in motor function. The results in this child show an increase of 5 points over 5 months, which is greater than the minimal important difference (MID) of the MABC, which has been reported as a change of 2.5 points shown over 6 months.

GSD III mice = assay: Short-term rhGAA enzyme replacement therapy in GSD III mice; type: in vivo, mouse
Procedure: (§1) Methods: GSD III mice were used to test 3 dosages to determine the minimum effective dose (MED) of rhGAA treatment: 20 mg/kg (n=6), 40 mg/kg (n=5), and 100 mg/kg (n=7). Weekly intravenous injections of rhGAA were conducted for 4 week starting at age of 10 weeks. A group of age-matched untreated mice (n=8) were used as controls. To prevent anaphylactic reactions, the animals were administered 25 mg/kg diphenhydramine (i.p.) 10 -15 min prior to enzyme administration. All mice were sacrificed 48 hours after the last injection following overnight fasting. Fresh tissues were immediately frozen and stored at −80° C. until use for GAA activity and glycogen content analyses. Protein concentration was measured using BCA method.

GSD IV mice = assay: Short-term rhGAA enzyme replacement therapy in GSD IV mice; type: in vivo, mouse
Procedure: as §1, with “A short-term study was conducted” for “GSD III mice were used to test 3 dosages”, “treatment with 3 dosages:” for “treatment:”, “(human equivalent dose, n=6),” for “(n=6),”, “(n=9),” for “(n=5),”, “(n=8). Male GSD IV mice received weekly” for “(n=7). Weekly”, “10-15” for “10 -15”

[4] = rhGAA 1000 nmol/hr/ml in medium, cells harvested 24 hours later
[5] = over 5 months on ERT vs pre-ERT baseline
[6] = reassessment, 5 months post ERT
[7] = 40 mg and 100 mg rhGAA treatment
[8] = weekly rhGAA for 4 weeks at 20, 40 or 100 mg/kg, data not shown
[9] = 20 mg/kg weekly i.v. for 4 weeks
[10] = 40 mg/kg weekly i.v. for 4 weeks

recombinant human acid alpha-glucosidase [rhGAA]
glycogen concentration [1]: significantly reduced | glycogen deposition (immunofluorescence staining) ([2]; 4 hours after rhGAA treatment): reduction of glycogen was obvious | glycogen deposition (immunofluorescence staining) ([2]; 24 hours after rhGAA treatment): became more evident | glycogen deposition (anti-glycogen antibody ESG1A9mAb staining) ([2]; immunofluorescence staining): reduced glycogen deposition | GAA activity increase [2, 4]: 50% | glycogen content decrease [2, 4]: 24% | glycogen content ([2]; rhGAA treated vs untreated cells): significantly (p<0.01) reduced | visual motor, fine motor, and gross motor skills (M-FUN) ([3]; after five months of ERT): improvement | overall clinical response (neurological, occupational and physical therapy reports) ([3]; listed as ERT): a clinical benefit was noted; also recorded: significant positive response | overall clinical response (neurological, occupational and physical therapy reports) ([3]; listed as alglucosidase alfa): significant improvement; also recorded: significant musculoskeletal improvements | fatigue on reassessment ([3]; five months of ERT, listed as ERT): less fatigue | Movement ABC percentile increase [3, 5]: 12 | Movement ABC score increase [3, 5]: 5 points | Movement ABC Total Test Score ([3]; re-assessment, 5 months after reinitiation of ERT): 73 | Movement ABC percentile ([3]; re-assessment, 5 months after reinitiation of ERT, listed as ERT): 37 percentile and 37th percentile | M-FUN Fine Motor Progress Score [3, 6]: 394 | M-FUN Fine Motor Scaled Score [3, 6]: 5 (considered mild/ | M-FUN Fine Motor assessment notes [3, 6]: Patient's scaled scores show a fine motor improvement | M-FUN Gross Motor Progress Score [3, 6]: 407 | M-FUN Gross Motor Scaled Score [3, 6]: 3 (considered very | M-FUN Gross Motor reassessment notes [3, 6]: gaining new motor skills and is improving in their current | M-FUN Visual Motor Progress Score [3, 6]: 496 | M-FUN Visual Motor Scaled Score [3, 6]: 9 (considered “average” or | M-FUN Visual Motor assessment notes [3, 6]: Patient's scaled scores show a visual motor improvement | seizures ([3]; since reinitiation of ERT): better controlled | gross motor abilities assessed by physical therapist ([3]; three months after first initiation of ERT, 20 mg/kg every 2 weeks): began improving | liver glycogen decrease (GSD III mice; [7]): 24-25% | glycogen content in heart (GSD III mice; 40 mg and 100 mg treatments): significantly reduced | glycogen content in liver (GSD III mice; 40 mg and 100 mg treatments): significantly reduced | ratio of liver/body weight (GSD III mice; 40 mg and 100 mg treatments): reduced | glycogen content in any tissues (GSD III mice; 20-mg treatment): did not affect | glycogen content in skeletal muscles (GSD III mice; 40-mg and 100-mg treatment groups): no significant change | GAA enzyme uptake (GAA activity rank order of tissues) (GSD III mice; weekly i.v. for 4 weeks): liver>heart>diaphragm>leg muscles | plasma alanine aminotransferase (ALT) (GSD III mice; weekly rhGAA for 4 weeks): reduction | plasma alkaline phosphatase (ALP) (GSD III mice; weekly rhGAA for 4 weeks): reduction | plasma aspartate aminotransferase (AST) (GSD III mice; weekly rhGAA for 4 weeks): reduction | plasma creatine kinase (CK) (GSD III mice; weekly rhGAA for 4 weeks): reduction | anti-GAA antibodies generated, compared with that reported in GAA-KO mice (GSD III mice; [8]): significantly less | glycogen in any tissue (GSD IV mice; 20 mg/kg): failed to reduce glycogen in any tissue | reduction of glycogen accumulation in liver (GSD IV mice; 20 mg/kg): not significant | GAA activity in heart, increase (GSD IV mice; [9]): 1.7 fold | GAA activity in liver, increase over untreated controls (GSD IV mice; [9]): 29 fold | liver glycogen decrease (GSD IV mice; [7]): 21-25% | GAA activity in heart, increase (GSD IV mice; [10]): 2.8 fold | glycogen content in liver, change (GSD IV mice; [10]): −21% | plasma alanine aminotransferase (ALT) (GSD IV mice; 40 mg/kg, p<0.01 vs untreated): 650±32 U/L | liver/body weight ratio (GSD IV mice; 40 mg/kg, p<0.05 vs untreated): 5.0±0.2% | plasma aspartate aminotransferase (AST) (GSD IV mice; 40 mg/kg, p=0.074 vs untreated): 849±50 U/L | GAA activity in skeletal muscles, increase (GSD IV mice; 100 mg/kg): 1.6 fold | glycogen content in liver, change (GSD IV mice; 100 mg/kg weekly i.v. for 4 weeks): −25% | GAA activity in tissues (GSD IV mice; 20, 40, 100 mg/kg, dose dependent): significant increase | GAA activity in quadriceps, increase (GSD IV mice; at either dosage (20 or 40 mg/kg)): negligible | GAA activity in gastrocnemius, increase (GSD IV mice; either treated group (20 or 40 mg/kg)): less than 1 fold | anti-GAA antibodies generated, compared with that reported in GAA-KO mice (GSD IV mice; [8]): significantly less

— patent US20180326021A1, “Methods and Compositions for the Treatment of Cytoplasmic Glycogen Storage Disorders” (Duke University, priority 2015, published 2018)
